Assay: Acute toxicity, single oral administration to mice
Details: mouse, in vivo, p.o.
Description: Moreover, the Table contains data concerning the acute toxicity, that is, LD50 in mg/kg in the case of single oral administration to mice.
Work on `COc1ccc(C(=O)N2CC[C@@H](O)C2=O)cc1O` [R, (R)-1-(3-hydroxy-4-methoxybenzoyl)-3-hydroxy-2-pyrrolidinone] yielded an LD50 greater than 5000 mg/kg. `COc1ccc(C(=O)N2CCC(O)C2=O)cc1O` (racemic) [R,S, (R,S)-1-(3-hydroxy-4-methoxybenzoyl)-3-hydroxy-2-pyrrolidinone] gave an LD50 greater than 5000 mg/kg. For `COc1ccc(C(=O)N2CC[C@H](O)C2=O)cc1O` [S, (S)-1-(3-hydroxy-4-methoxybenzoyl)-3-hydroxy-2-pyrrolidinone], the LD50 was greater than 4000 mg/kg.

From patent US4452807A, “(R,S)-1-(3-Hydroxy-4-methoxybenzoyl)-3-hydroxy-2-pyrrolidinone intermediates therefor and use for treating cerebral insufficiency” (Hoffmann-La Roche Inc., priority 1981, dated 1984)
